Data from patent US11591596B2, “Compounds and compositions including phosphorothioated oligodeoxynucleotide, and methods of use thereof” (City of Hope, priority 2015, dated 2023).

Legend:
[1] = test system: miR-126; assay: In vitro and in vivo uptake and miR-126 silencing (K562, HUVEC, CD34+CD38- cells, murine CML BM, LTHSC, EC, mice); set-up: species or system human and mouse; conditions: 500 nM in vitro; 5 mg/kg iv in vivo
Method: FIGS. 23A-23K. […] Uptake test measured by flow cytometric analysis at 4 hours (FIG. 23A) and 24 hours (FIG. 23B) after addition of CpG-miR-126 inhibitor-Cy3 (CpG), Ab-NPs (Ab-NP) or TF-NPs (TF-NP) containing miR-126 inhibitor-Cy3, or naked miR-126 inhibitor-Cy3 (labeled as Control in FIGS. 23A and B) in K562 cells. The experiment was replicated twice. miR-126 expression in K562 was measured by Q-RT-PCR at 24 hours (n=3) (FIG. 23C). Uptake in HUVEC (FIG. 23D), human normal (FIG. 23E) and CML (FIG. 23F) CD34^+CD38^− cells at 4 hours after addition of CpG-miR-126 inhibitor-Cy3 (500 nM) was measured by flow cytometry. miR-126 expression in HUVEC (FIG. 23G), normal (FIG. 23H) and CML (FIG. 23I) CD34^+CD38^− cells treated with CpG-miR-126 inhibitor (500 nM) for 24 hours is shown (n=4). […]
FIGS. 25A-25O. […] Murine CML BM, LTHSC and EC cells were treated with CpG-miR-126 inhibitor-Cy3 (500 nM) for 4 hours and then Cy3^+ cells were detected by flow cytometry (FIG. 25A). The cells were also collected at 24 hours and miR-126 expression was determined by Q-RT-PCR (FIG. 25B). Cell cycling was measured by EDU staining at 72 hours after addition of CpG-miR-126 inhibitor in CML BM LTHSC. […] CML mice were treated with CpG-miR-126 inhibitor-Cy3 with one dose (5 mg/kg, iv injection) and Cy3 uptake in BM, LTHSC and EC was measured at 16 hours after treatment by flow cytometry (FIG. 25D). […]

[2] = test system: CML CD34+, CD34+CD38+ committed and CD34+CD38− primitive progenitors; assay: Apoptosis of CML progenitors by Annexin V/DAPI staining; assay type: cell-based, human; conditions: 500 nM combined with NIL 5 uM, 72 hours, compared with CpG-scramble and NIL
Method: CML CD34+, CD34+CD38+ committed and CD34+CD38− primitive progenitors were cultured with CpG-scramble RNA (500 nM), CpG-miR126 inhibitor (500 nM), CpG-scramble RNA (500 nM)+Nilotinib (5 μM), and CpG-miR126 inhibitor (500 nM)+NIL (5 μM) for 72 hours and then apoptosis was analyzed by Annexin V/DAPI staining.
CML CD34+, CD34+CD38+ committed and CD34+CD38− primitive progenitors were cultured with CpG-scramble RNA (500 nM), CpG-anti-miR126 inhibitor (500 nM), CpG-scramble RNA (500 nM)+Nilotinib (NIL, 5 uM), and CpG-anti-miR126 inhibitor (500 nM)+NIL (5 uM) for 72 hours and then cell cycling and apoptosis were analyzed by EDU/DAPi and Annexin V/DAPi staining.

Substance: 5′ G*G*T GCA TCG ATG CAGG*G*G* G*G (SEQ ID NO: 1) xxxxx mCmGmC mAmUmU mAmUmU mAmCmU mCmAmC mGmGmU mAmCmG mA (SEQ ID NO: 17) 3′ [CpG-anti-miR126]
- uptake and gene silencing effects [1]: Effective in vitro and in vivo uptake and gene silencing effects
- apoptosis [2]: Increased apoptosis
